Experimental data reported in patent publication US5633144A, “Assay pad and method for determination of the presence of total coliforms” (priority 1994, dated 1997).
Read-outs that look alike come from different tables or passages of the source.

Assays:
[1] = cited from earlier work
[2] = Solubility and storage stability of CPRG; type: physicochemical; details: 50 mM K-phosphate buffer containing 1 mM MgCl2, pH 7.5, 4° C.
Description: CPRG was dissolved in 50 mM K-phosphate buffer containing 1 mM MgCl2. […] When the beta-galactosidase catalzyed hydrolysis of CPRG occurs, the resulting product on the MetPAD™ is purple and, thus, is easily detected visibly.

beta-galactosidase [3] = biological target: T1, beta-galactosidase (Escherichia coli, UniProt P00722); type: biochemical, E. coli EW1b
T1 construct: one convenient source of beta-galactosidase is bacteria which produce this enzyme in useful amounts; endogenous in cells; host or cells: E. coli EW1b (Coli Genetic Stock Culture, Yale University), IPTG-induced, freeze-dried in trehalose, rehydrated

[4] = test system: beta-galactosidase of E. coli EW1b; type: biochemical; details: for Color intensity, trehalose medium: freeze-dried in trehalose medium (22.4% w/v); for Color intensity, distilled water: freeze-dried in distilled water
beta-galactosidase [5] = biological target: T1, beta-galactosidase; type: biochemical, E. coli EW1b; remark: listed apart in the source
beta-galactosidase [6] = biological target: T1, beta-galactosidase; type: biochemical, E. coli EW1b; design: key: +++++: maximum color intensity; -: complete enzyme inactivation
E. coli EW1b cells = test: Enhancement of beta-galactosidase production by inducer; type: cell-based; details: E. coli EW1b cells treated with inducer
From the text: As described above, one convenient source of beta-galactosidase is bacteria which produce this enzyme in useful amounts. Advantageously, the enzyme produced by the bacteria is readily accessible to the heavy metal and the substrate. […] Among the bacteria investigated by the applicants are E. coli C3000, E. coli EW1b, and a mixed culture of beta-galactosidase producers isolated from wastewater. E. coli C3000 is available from the American Type Culture Collection (ATCC), 12301 Parklawn Drive, Rockville, Md. 20852 USA. The culture has been assigned the accession number ATCC 15597 by the repository. E. coli EW1b is available from the Coli Genetic Stock Culture, Yale University, New Haven, Conn. The mixed culture was obtained following inoculation of LB-lactose-SDS broth with activated sludge effluent. Although these bacteria would perform well in the assay of the subject invention, E. coli C3000 was not as sensitive to heavy metal toxicity as E. coli EW1b or the mixture of beta-galactosidase producing bacteria. Moreover, due to potential problems in maintaining a mixed culture of bacteria, E. coli EW1b is the preferred microbe. […]
3. […] The bacterial suspension is then diluted with 20 ml of fresh medium, amended with 1 ml of 0.2% (w/v) solution of isopropyl-beta-thiogalactoside (IPTG) and then allowed to grow to absorbance A550 =0.4-0.5.

[7] = Stability of beta-galactosidase in freeze-dried cells; type: physicochemical, E. coli EW1b
Description: A. Preparation of freeze-dried cells
1. Stock cultures of E. coli EW1b are stored in 40% glycerol solution at -14° C. to -20° C.
2. Fifty μL of the stock culture are inoculated into 5 ml of LB-lactose medium (Bacto-tryptone: 1%; yeast extract: 0.5%; NaCl: 1.0%; K2 HPO4 : 0.15%; Lactose: 1%).
3. Cells are grown overnight at 35° C. The bacterial suspension is then diluted with 20 ml of fresh medium, amended with 1 ml of 0.2% (w/v) solution of isopropyl-beta-thiogalactoside (IPTG) and then allowed to grow to absorbance A550 =0.4-0.5.
4. Cells are centrifuged at 8000 RPM for 10 minutes.
5. The pellet is resuspended in distilled water.
6. The suspension is centrifuged for 10 minutes at 8000 RPM.
7. The suspension is resuspended in 2% trehalose to obtain an absorbance of A550 =0.2-0.25 (if using the MUGA pads for enzyme assay, an absorbance of A550 =0.10 is sufficient).
8. This suspension is dispensed in 3 ml aliquots in serum bottles.
9. The cells are frozen overnight at -40° C.
10. The frozen cells are freeze-dried for 24 hours and stored at subzero or at refrigerator temperature until used. […] Moreover, the enzyme was stable for at least 18 hours at 35° C.

[8] = 400 ppm, maximum concentration tested at which no inhibition was observed

T1 sequence (P00722 2-1024): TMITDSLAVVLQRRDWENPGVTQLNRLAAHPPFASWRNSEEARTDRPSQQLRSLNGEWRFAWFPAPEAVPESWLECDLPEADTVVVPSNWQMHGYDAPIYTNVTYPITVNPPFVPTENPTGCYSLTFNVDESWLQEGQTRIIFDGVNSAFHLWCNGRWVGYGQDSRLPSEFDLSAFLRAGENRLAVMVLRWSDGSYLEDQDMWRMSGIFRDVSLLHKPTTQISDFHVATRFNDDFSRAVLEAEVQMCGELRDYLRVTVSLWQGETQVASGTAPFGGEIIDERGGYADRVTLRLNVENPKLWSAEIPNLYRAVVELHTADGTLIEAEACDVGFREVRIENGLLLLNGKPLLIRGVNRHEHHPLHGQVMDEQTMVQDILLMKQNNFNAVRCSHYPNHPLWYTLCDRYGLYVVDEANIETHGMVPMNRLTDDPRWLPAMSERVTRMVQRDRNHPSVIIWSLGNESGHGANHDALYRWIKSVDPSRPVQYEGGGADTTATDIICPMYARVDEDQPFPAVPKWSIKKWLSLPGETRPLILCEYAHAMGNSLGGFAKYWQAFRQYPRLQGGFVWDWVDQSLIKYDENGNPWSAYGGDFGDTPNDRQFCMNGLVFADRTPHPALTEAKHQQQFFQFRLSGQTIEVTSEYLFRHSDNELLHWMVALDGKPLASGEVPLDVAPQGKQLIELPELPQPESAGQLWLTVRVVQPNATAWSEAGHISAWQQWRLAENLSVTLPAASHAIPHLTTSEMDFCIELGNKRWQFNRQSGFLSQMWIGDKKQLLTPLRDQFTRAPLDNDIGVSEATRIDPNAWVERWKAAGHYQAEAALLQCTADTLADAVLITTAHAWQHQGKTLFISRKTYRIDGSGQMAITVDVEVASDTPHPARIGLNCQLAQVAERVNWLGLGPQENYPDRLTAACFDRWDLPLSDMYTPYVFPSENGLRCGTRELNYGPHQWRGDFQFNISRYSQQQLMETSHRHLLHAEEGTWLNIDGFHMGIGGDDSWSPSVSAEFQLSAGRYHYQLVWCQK

Compound: O=S1(=O)OC(c2ccc(O)c(Cl)c2)(c2ccc(O[C@@H]3O[C@H](CO)[C@H](O)[C@H](O)[C@H]3O)c(Cl)c2)c2ccccc21 (stereo partly drawn) [CPRG, chlorophenol red-beta-D-galactopyranoside]
- solubility [1]: more than 50 mmol/L
- stability ([1]; must be protected from light): stable at -20 °C
- stability of CPRG solution [2]: stable at 4 °C for one week

Compound: O=S(=O)([O-])[O-].[Cd+2] [Cadmium (CdSO4), Cadmium]
- Minimum inhibitory concentration (MIC), CPRG pads (beta-galactosidase [3]; CPRG pads): 0.30 µg/mL
- Minimum inhibitory concentration (MIC), fluorescent pads (beta-galactosidase [3]; Fluorescent (MUGA) pads): 0.30 µg/mL
- Color intensity, trehalose medium ([4]; 1.0 ppm): -
- Color intensity, trehalose medium ([4]; 1.5 ppm): -
- MIC (Minimum Inhibitory Concentration) (beta-galactosidase [5]; MetPAD): 0.2 µg/mL
- Total inactivation (toxicant concentration which causes 100% inhibition of enzyme activity) (beta-galactosidase [5]; MetPAD): 1.0 mg/L
- heavy metal toxicity, response of MetPAD (in words) (beta-galactosidase [5]; MetPAD, 7 heavy metals): most toxic among the metals tested

Compound: ClC(Cl)Cl [Chloroform]
- Color intensity (beta-galactosidase [6]; 3250 ppm): +++++

Compound: O.O.O.O.O.O=S(=O)([O-])[O-].[Cu+2] [Copper (CuSO4.5H2 O), Copper]
- Minimum inhibitory concentration (MIC), CPRG pads (beta-galactosidase [3]; CPRG pads): 0.50 µg/mL
- Minimum inhibitory concentration (MIC), fluorescent pads (beta-galactosidase [3]; Fluorescent (MUGA) pads): 0.25 µg/mL
- Color intensity, distilled water ([4]; 0.5 ppm): +++++
- Color intensity, distilled water ([4]; 0.8 ppm): +++++
- Color intensity, distilled water ([4]; 1.0 ppm): +++++
- Color intensity, trehalose medium ([4]; 1.0 ppm): -
- Color intensity, distilled water ([4]; 1.5 ppm): +++++
- Color intensity, trehalose medium ([4]; 1.5 ppm): -
- MIC (Minimum Inhibitory Concentration) (beta-galactosidase [5]; MetPAD): 0.5 µg/mL
- Total inactivation (toxicant concentration which causes 100% inhibition of enzyme activity) (beta-galactosidase [5]; MetPAD): 1.0 mg/L

Compound: C=O [Formaldehyde]
- Color intensity (beta-galactosidase [6]; 925 ppm, buffered to pH = 7.0 with K-phosphate buffer): +++++

Compound: CC(C)S[C@@H]1O[C@H](CO)[C@H](O)[C@H](O)[C@H]1O [IPTG, isopropyl-beta-thiogalactoside]
- beta-galactosidase production (E. coli EW1b cells): beta-galactosidase production could be enhanced

Compound: O=[N+]([O-])[O-].O=[N+]([O-])[O-].[Pb+2] [Lead (Pb(NO3)2), Lead]
- Minimum inhibitory concentration (MIC), CPRG pads (beta-galactosidase [3]; CPRG pads): 5.00 µg/mL
- Minimum inhibitory concentration (MIC), fluorescent pads (beta-galactosidase [3]; Fluorescent (MUGA) pads): 2.50 µg/mL
- Color intensity, trehalose medium ([4]; 3.0 ppm): +++++
- Color intensity, trehalose medium ([4]; 15.0 ppm): -
- Color intensity, trehalose medium ([4]; 20.0 ppm): -
- MIC (Minimum Inhibitory Concentration) (beta-galactosidase [5]; MetPAD): 5.0 µg/mL
- Total inactivation (toxicant concentration which causes 100% inhibition of enzyme activity) (beta-galactosidase [5]; MetPAD): 15.0 mg/L

Compound: Cl[C@H]1[C@H](Cl)[C@@H](Cl)[C@@H](Cl)[C@H](Cl)[C@H]1Cl [Lindane]
- Color intensity (beta-galactosidase [6]; 500 ppm): +++++

Compound: O.O.O.O.O.O.O=S(=O)([O-])[O-].[Ni+2] [Ni (NiSO4.6H2 O), Nickel]
- Minimum inhibitory concentration (MIC), CPRG pads (beta-galactosidase [3]; CPRG pads): 8.00 µg/mL
- Minimum inhibitory concentration (MIC), fluorescent pads (beta-galactosidase [3]; Fluorescent (MUGA) pads): 5.00 µg/mL
- MIC (Minimum Inhibitory Concentration) (beta-galactosidase [5]; MetPAD): 8.0 µg/mL
- Total inactivation (toxicant concentration which causes 100% inhibition of enzyme activity) (beta-galactosidase [5]; MetPAD): 20.0 mg/L

Compound: Oc1c(Cl)c(Cl)c(Cl)c(Cl)c1Cl [Pentachlorophenol]
- Color intensity (beta-galactosidase [6]; [8]): +++++

Compound: Oc1ccccc1 [Phenol]
- Color intensity (beta-galactosidase [6]; 3000 ppm): +++++

Compound: CCCCCCCCCCCCOS(=O)(=O)[O-].[Na+] [Sodium dodecyl sulfate]
- Color intensity (beta-galactosidase [6]; 3000 ppm): +++++

Compound: Cn1cc(-c2ccccc2)c(=O)c(-c2cccc(C(F)(F)F)c2)c1 [Sonar (Fluoridone), Fluoridone]
- Color intensity (beta-galactosidase [6]; [8]): +++++

Compound: O=S(=O)([O-])[O-].[Zn+2] [Zinc (ZnSO4), Zinc]
- Minimum inhibitory concentration (MIC), CPRG pads (beta-galactosidase [3]; CPRG pads): 0.5 to 1.00 µg/mL
- Minimum inhibitory concentration (MIC), fluorescent pads (beta-galactosidase [3]; Fluorescent (MUGA) pads): 0.50 µg/mL
- Color intensity, distilled water ([4]; 0.5 ppm): +++++
- Color intensity, trehalose medium ([4]; 0.5 ppm): +++++
- Color intensity, distilled water ([4]; 1.0 ppm): +++++
- Color intensity, trehalose medium ([4]; 3.0 ppm): -
- Color intensity, trehalose medium ([4]; 5.0 ppm): -
- Color intensity, trehalose medium ([4]; 7.5 ppm): -
- Color intensity, distilled water ([4]; 10.0 ppm): -
- Color intensity, trehalose medium ([4]; 10.0 ppm): -
- MIC (Minimum Inhibitory Concentration) (beta-galactosidase [5]; MetPAD): 0.5 to 1 µg/mL
- Total inactivation (toxicant concentration which causes 100% inhibition of enzyme activity) (beta-galactosidase [5]; MetPAD): 3.0 mg/L

Compound: O=[N+]([O-])c1ccc(O)cc1 [p-nitrophenol]
- Color intensity (beta-galactosidase [6]; 110 ppm): +++++

Compound: Chromium [Cr (K2 Cr2 O7)]
- Minimum inhibitory concentration (MIC), CPRG pads (beta-galactosidase [3]): 25.00 µg/mL
- Minimum inhibitory concentration (MIC), fluorescent pads (beta-galactosidase [3]): 25.00 µg/mL
- MIC (Minimum Inhibitory Concentration) (beta-galactosidase [5]): 25.0 µg/mL
- Total inactivation (toxicant concentration which causes 100% inhibition of enzyme activity) (beta-galactosidase [5]): 50.0 mg/L

Compound: Mercury [Mercury (HgSO4)]
- Minimum inhibitory concentration (MIC), CPRG pads (beta-galactosidase [3]; CPRG pads): 0.25 µg/mL
- Minimum inhibitory concentration (MIC), fluorescent pads (beta-galactosidase [3]; Fluorescent (MUGA) pads): 0.25 µg/mL
- Color intensity, distilled water ([4]; 0.5 ppm): +++++
- Color intensity, distilled water ([4]; 1.0 ppm): +++++
- Color intensity, trehalose medium ([4]; 1.0 ppm): -
- Color intensity, distilled water ([4]; 1.5 ppm): +++++
- Color intensity, trehalose medium ([4]; 1.5 ppm): -
- Color intensity, trehalose medium ([4]; 2.0 ppm): -
- MIC (Minimum Inhibitory Concentration) (beta-galactosidase [5]; MetPAD): 0.5 µg/mL
- Total inactivation (toxicant concentration which causes 100% inhibition of enzyme activity) (beta-galactosidase [5]; MetPAD): 1.0 mg/L

Compound: beta-galactosidase: enzyme of freeze-dried E. coli EW1b cells
- stability of beta-galactosidase activity of freeze-dried cells ([7]; 4° C.): stable for several weeks
- stability of the enzyme ([7]; 35° C.): at least 18 hours
